Measured values from patent US20040102514A1 (priority 2003, published 2004).
Entries after “also recorded” stand apart in the source; their conditions may differ.

Columns and labels:
Sprague-Dawley rats [1] = settings: rat, in vivo
Sprague-Dawley rats [2] = settings: rat, in vivo; remark: listed apart in the source
weanling pigs = settings: pig, in vivo

Question: With “7α,15-benzylidene-9α,12β-dimethyltrichothecan-3α,8α,12α-triol [EN139502]” as the compound, how does the “delay before intensified fasting pattern” value (Sprague-Dawley rats [1]) read?
Answer: approximately 5 min

Question: What about the “effect on fasting pattern of gut motility” value (Sprague-Dawley rats [1]) of the same compound?
Answer: intensify or enhance the fasting pattern

Question: And the “induction of fed pattern of gut motility” value (Sprague-Dawley rats [1])?
Answer: did not induce the fed pattern gut motility

Question: With “7α, 15-benzylidene-3α,8αdiacetoxy-9α,12β-dimethyltrichothecan-12α-ol [EN139508]” as the compound, how does the “duration of induced pattern” value (Sprague-Dawley rats [1]) read?
Answer: approximately 30 minutes

Question: What about the “induction of fed pattern of gut motility” value (Sprague-Dawley rats [1]) of the same compound?
Answer: induced a dose-dependent fed pattern of gut motility

Question: And the “onset time of action (duodenal site D1)” value (Sprague-Dawley rats [1])?
Answer: approximately 60 seconds

Question: And the “pattern of gut motor activity induced” value (Sprague-Dawley rats [1])?
Answer: induced a dose-dependent fed pattern of gut motility

Question: And the “time of onset of action after administration” value (Sprague-Dawley rats [1])?
Answer: approximately 60 seconds

Question: What does the source list for `CC1=C[C@H]2O[C@@H]3[C@H](O)C[C@](C)([C@@]2(CO)[C@H](O)C1=O)[C@]31CO1` [DON, 3α,7α, 15-trihydroxy-12,13-epoxy-trichothec-9-en-8-one]?
Answer: induction of fed pattern of gut motility (Sprague-Dawley rats [1]): induced the fed pattern of gut motility; food consumption (Sprague-Dawley rats [2]): immediate and sustained reduction; also recorded: concentration-dependant reduction; also recorded: decrease; weight gain (Sprague-Dawley rats [2]): immediate and sustained reduction; also recorded: concentration-dependant reduction; also recorded: decrease; emesis (weanling pigs): some emesis occurred; food consumption in the Day 1 AM meal following the treat (weanling pigs): decreased food consumption; persistence of effect on food consumption at Day 1 PM and following meals (weanling pigs): wore off by the next meal

Question: Which results are given for `C[C@@H]1C[C@H]2O[C@@H]3[C@H](O)C[C@](C)([C@]24COC(c2ccccc2)O[C@@H]4C1=O)[C@@]3(C)O` (stereo partly drawn) [EN139522, 7α,15-benzylidene-9α, 12β-dimethyl-3α, 12α-dihydroxytricocethcan-8-one]?
Answer: duration of action (fed pattern) (Sprague-Dawley rats [1]): 35 min; induction of fed pattern of gut motility (Sprague-Dawley rats [1]): induce a classic fed pattern; time of onset of action after administration (Sprague-Dawley rats [1]): 20 s
